Reference: patent publication US10912764B2, “Salinosporamides and methods of use thereof” (The Regents of the University of California, priority 2002, dated 2021)
≈ marks a conversion by molar mass, not a printed value. Where two headings read alike, the source gives them in different places.

Assays:
HCT-116 = HCT-116 human colon cancer cell cytotoxicity assay
[1] = test system: Enterococcus faecium (vanomycin resistant); test: Antibacterial screening, Enterococcus faecium; assay type: cell-based
[2] = test system: Staphylococcus aureus (methecillin resistant); test: Antibacterial screening, Staphylococcus aureus; assay type: cell-based
Candida albicans = test: Antifungal screening, Candida albicans; assay type: cell-based; conditions: antifungal activity
[3] = test system: Candida albicans (amphoterocin B resistant); test: Antifungal screening, Candida albicans (amphoterocin B resistant); assay type: cell-based
[4] = Solubility in organic solvents; conditions: CHCl3, methanol, and other polar solvents like DMSO, acetone, acetonitrile, benzene, pyridine, N,N-dimethyformamide
[5] = HCT-116, read-out: IC50, cytotoxic activity against human colon cancer cells

Row | SMILES | IC50 (HCT-116; [5]) | antibacterial activity, Enterococcus faecium [1] | IC50 ([1]; Enterococcus faecium) | antibacterial activity, Staphylococcus aureus [2] | IC50 ([2]; Staphylococcus aureus) | IC50 (Candida albicans) | IC50 [3] | IC50 (HCT-116; HCT-116, read-out: IC50, HCT-116) | solubility [4]
1 | COc1cc([C@@H]2c3cc4c(cc3[C@@H](O[C@@H]3O[C@@H]5CO[C@@H](C)O[C@H]5[C@H](O)[C@H]3O)[C@H]3COC(=O)[C@H]23)OCO4)cc(OC)c1O [etoposide, reference compound] | 0.828 µg/mL (≈ 1.41 µM) |  |  |  |  |  |  |  | 
2 | C[C@@]12OC(=O)[C@]1([C@@H](O)[C@@H]1C=CCCC1)NC(=O)[C@@H]2CCCl [Salinosporamide A] | 0.011 µg/mL (≈ 0.0351 µM) | no antibacterial activity | > 250 µg/mL | no antibacterial activity | > 250 µg/mL | 250 µg/mL (≈ 797 µM) | > 250 µg/mL | 0.011 µg/mL (≈ 0.0351 µM) | soluble
